The source of these data is patent US11001586B2, “Alkyl pyrrolopyrimidine analogs and methods of making and using same” (The University of North Carolina at Chapel Hill, priority 2016, dated 2021).

The target in test [1] is Mer tyrosine kinase (Homo sapiens (Human), UniProt Q12866). In words: Evaluation of activity against Mer tyrosine kinase. The class given is biochemical.
Test [2] concerns the target Tyro3 tyrosine kinase (Homo sapiens (Human), UniProt Q06418). Briefly: Evaluation of activity against Tyro3 tyrosine kinase. It counts as biochemical.

Chain of Mer tyrosine kinase (Q12866 21-999): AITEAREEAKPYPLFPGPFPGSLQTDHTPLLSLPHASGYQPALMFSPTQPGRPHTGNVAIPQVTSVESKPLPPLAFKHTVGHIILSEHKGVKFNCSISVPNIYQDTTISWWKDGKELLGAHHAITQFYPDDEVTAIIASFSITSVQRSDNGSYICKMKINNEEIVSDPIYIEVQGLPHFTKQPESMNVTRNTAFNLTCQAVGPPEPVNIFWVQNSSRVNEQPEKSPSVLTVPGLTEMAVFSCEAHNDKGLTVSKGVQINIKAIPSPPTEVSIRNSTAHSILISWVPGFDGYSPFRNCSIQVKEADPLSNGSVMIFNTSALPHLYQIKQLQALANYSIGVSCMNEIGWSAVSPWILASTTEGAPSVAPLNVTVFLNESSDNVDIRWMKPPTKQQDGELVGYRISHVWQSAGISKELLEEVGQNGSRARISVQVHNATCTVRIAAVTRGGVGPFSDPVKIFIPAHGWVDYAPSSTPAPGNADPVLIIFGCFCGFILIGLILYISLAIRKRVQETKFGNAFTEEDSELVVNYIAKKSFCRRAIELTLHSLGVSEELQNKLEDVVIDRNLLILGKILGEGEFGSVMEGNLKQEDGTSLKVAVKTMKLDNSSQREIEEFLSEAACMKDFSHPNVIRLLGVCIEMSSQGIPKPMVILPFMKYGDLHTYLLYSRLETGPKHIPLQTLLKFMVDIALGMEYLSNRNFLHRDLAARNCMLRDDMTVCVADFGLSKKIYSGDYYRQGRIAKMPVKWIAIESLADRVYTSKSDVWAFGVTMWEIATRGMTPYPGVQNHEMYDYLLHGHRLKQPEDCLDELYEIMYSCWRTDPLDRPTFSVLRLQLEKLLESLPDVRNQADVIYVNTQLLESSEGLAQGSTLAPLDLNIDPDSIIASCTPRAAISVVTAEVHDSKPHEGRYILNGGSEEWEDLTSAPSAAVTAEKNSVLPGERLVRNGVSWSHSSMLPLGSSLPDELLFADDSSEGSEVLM
Chain of Tyro3 tyrosine kinase (Q06418 41-890): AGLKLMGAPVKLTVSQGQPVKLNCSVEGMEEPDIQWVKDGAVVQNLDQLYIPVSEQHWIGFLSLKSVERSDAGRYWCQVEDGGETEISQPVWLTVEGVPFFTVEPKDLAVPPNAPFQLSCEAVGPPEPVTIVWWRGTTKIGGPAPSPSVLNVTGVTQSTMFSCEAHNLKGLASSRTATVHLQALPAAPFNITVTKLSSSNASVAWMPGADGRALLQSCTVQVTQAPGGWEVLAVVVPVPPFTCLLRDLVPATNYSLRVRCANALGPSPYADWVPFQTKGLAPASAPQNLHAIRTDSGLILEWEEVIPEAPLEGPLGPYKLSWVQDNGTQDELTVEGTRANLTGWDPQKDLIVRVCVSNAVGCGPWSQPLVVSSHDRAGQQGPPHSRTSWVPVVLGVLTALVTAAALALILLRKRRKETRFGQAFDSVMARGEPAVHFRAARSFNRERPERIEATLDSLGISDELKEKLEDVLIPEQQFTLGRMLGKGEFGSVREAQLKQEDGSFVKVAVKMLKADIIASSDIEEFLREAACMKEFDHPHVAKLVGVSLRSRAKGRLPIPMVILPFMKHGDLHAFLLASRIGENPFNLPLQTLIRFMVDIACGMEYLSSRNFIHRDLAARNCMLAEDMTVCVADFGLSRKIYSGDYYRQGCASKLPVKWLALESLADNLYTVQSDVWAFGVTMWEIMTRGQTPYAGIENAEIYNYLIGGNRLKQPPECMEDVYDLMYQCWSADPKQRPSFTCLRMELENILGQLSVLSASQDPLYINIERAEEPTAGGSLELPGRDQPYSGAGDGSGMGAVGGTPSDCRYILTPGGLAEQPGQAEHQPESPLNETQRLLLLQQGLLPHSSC

Broadly, the IC50 is the point on the concentration scale where inhibition reaches its midpoint. Low values mean greater potency in that assay, high ones weaker potency in that assay. Consider `CCC[C@H](C)Nc1ncc2c(C3CCN(C(=O)C4CCNCC4)CC3)cn([C@H]3CC[C@H](O)CC3)c2n1` [compound 8, (4-(7-((1R,4S)-4-hydroxycyclohexyl)-2-(((S)-pentan-2-yl)amino)-7H-pyrrolo[2,3-d]pyrimidin-5-yl)piperidin-1-yl)(piperidin-4-yl)methanone], for which the results for the half-inhibitory concentration (IC50) in test [1] and in test [2] were below 10 nM and 10 to 100 nM, respectively. The corresponding values for `CCC[C@H](C)Nc1ncc2c(C3CCN(C(=O)[C@@H]4CCCNC4)CC3)cn([C@H]3CC[C@H](O)CC3)c2n1` [compound 23, (4-(7-((1R,4S)-4-hydroxycyclohexyl)-2-(((S)-pentan-2-yl)amino)-7H-pyrrolo[2,3-d]pyrimidin-5-yl)piperidin-1-yl)((R)-piperidin-3-yl)methanone] are below 10 nM and 10 to 100 nM.

`CCC[C@H](C)Nc1ncc2c(C3CCN(C(=O)C4CCN(C)C4)CC3)cn([C@H]3CC[C@H](O)CC3)c2n1` (stereo partly drawn) [compound 18, (4-(7-((1R,4S)-4-hydroxycyclohexyl)-2-(((S)-pentan-2-yl)amino)-7H-pyrrolo[2,3-d]pyrimidin-5-yl)piperidin-1-yl)(1-methylpyrrolidin-3-yl)methanone]: the IC50 in test [1] is below 10 nM; in test [2], 10 to 100 nM. The matching figures for `CCC[C@H](C)Nc1ncc2c(C3CCN(C(=O)[C@H]4CCCCN4)CC3)cn([C@H]3CC[C@H](O)CC3)c2n1` [compound 20, (4-(7-((1R,4S)-4-hydroxycyclohexyl)-2-(((S)-pentan-2-yl)amino)-7H-pyrrolo[2,3-d]pyrimidin-5-yl)piperidin-1-yl)((R)-piperidin-2-yl)methanone]: below 10 nM and 100 to 1000 nM.

With `CCC[C@H](C)Nc1ncc2c(C3CCN(C(=O)C4CCCN4C)CC3)cn([C@H]3CC[C@H](O)CC3)c2n1` (stereo partly drawn) [compound 16, 7-((1R,4S)-4-hydroxycyclohexyl)-5-(1-(methylprolyl)piperidin-4-yl)-2-(((S)-pentan-2-yl)amino)-7H-pyrrolo[2,3-d]pyrimidine], the IC50 in test [1] was below 10 nM; in test [2], 10 to 100 nM. As to `CCC[C@H](C)Nc1ncc2c(C3CCN(C(=O)[C@H]4CCCNC4)CC3)cn([C@H]3CC[C@H](O)CC3)c2n1` [compound 24, (4-(7-((1R,4S)-4-hydroxycyclohexyl)-2-(((S)-pentan-2-yl)amino)-7H-pyrrolo[2,3-d]pyrimidin-5-yl)piperidin-1-yl)((S)-piperidin-3-yl)methanone], the IC50 in test [1] was below 10 nM; in test [2] it was 10 to 100 nM. The corresponding values for `CCC[C@H](C)Nc1ncc2c(C3CCN(C(=O)c4ccc(Cl)cc4)CC3)cn([C@H]3CC[C@H](O)CC3)c2n1` [compound 84, (4-chlorophenyl)(4-(7-((1R,4S)-4-hydroxycyclohexyl)-2-(((S)-pentan-2-yl)amino)-7H-pyrrolo[2,3-d]pyrimidin-5-yl)piperidin-1-yl)methanone] are below 10 nM and 100 to 1000 nM.

Turning to `Cc1cc(C(=O)N2CCC(c3cn([C@H]4CC[C@H](O)CC4)c4nc(NCCCC(F)(F)F)ncc34)CC2)cc(C)n1` [compound 101, (2,6-dimethylpyridin-4-yl)(4-(7-((1r,4r)-4-hydroxycyclohexyl)-2-((4,4,4-trifluorobutyl)amino)-7H-pyrrolo[2,3-d]pyrimidin-5-yl)piperidin-1-yl)methanone], the IC50 was below 10 nM in test [1] and 1000 to 30000 nM in test [2]. The matching figures for `CCC[C@H](C)Nc1ncc2c(C3CCN(S(=O)(=O)C4CCN(C)CC4)CC3)cn([C@H]3CC[C@H](O)CC3)c2n1` [compound 1, (1S,4R)-4-(5-(1-((1-methylpiperidin-4-yl)sulfonyl)piperidin-4-yl)-2-(((S)-pentan-2-yl)amino)-7H-pyrrolo[2,3-d]pyrimidin-7-yl)cyclohexan-1-ol]: below 10 nM and 10 to 100 nM.

For `CCC[C@H](C)Nc1ncc2c(C3CCN(C(=O)c4ccc(F)cc4)CC3)cn([C@H]3CC[C@H](O)CC3)c2n1` [compound 89, (4-fluorophenyl)(4-(7-((1R,4S)-4-hydroxycyclohexyl)-2-(((S)-pentan-2-yl)amino)-7H-pyrrolo[2,3-d]pyrimidin-5-yl)piperidin-1-yl)methanone], the IC50 in test [1] was below 10 nM; in test [2], 100 to 1000 nM. The corresponding values for `CC[C@H]1C[C@@H]1Nc1ncc2c(C3CCN(C(=O)c4ccncc4)CC3)cn([C@H]3CC[C@H](O)CC3)c2n1` [compound 42, (4-(2-(((1S,2S)-2-ethylcyclopropyl)amino)-7-((1R,4S)-4-hydroxycyclohexyl)-7H-pyrrolo[2,3-d]pyrimidin-5-yl)piperidin-1-yl)(pyridin-4-yl)methanone] are below 10 nM and 100 to 1000 nM. The matching figures for `CCC[C@H](C)Nc1ncc2c(C3CCN(S(=O)(=O)C4CCNCC4)CC3)cn([C@H]3CC[C@H](O)CC3)c2n1` [compound 3, (1S,4R)-4-(2-(((S)-pentan-2-yl)amino)-5-(1-(piperidin-4-ylsulfonyl)piperidin-4-yl)-7H-pyrrolo[2,3-d]pyrimidin-7-yl)cyclohexan-1-ol]: below 10 nM and 10 to 100 nM. The corresponding values for `CCC[C@H](C)Nc1ncc2c(C3CCN(C(=O)C4CCN(CCF)CC4)CC3)cn([C@H]3CC[C@H](O)CC3)c2n1` [compound 36, (1-(2-fluoroethyl)piperidin-4-yl)(4-(7-((1R,4S)-4-hydroxycyclohexyl)-2-(((S)-pentan-2-yl)amino)-7H-pyrrolo[2,3-d]pyrimidin-5-yl)piperidin-1-yl)methanone] are below 10 nM and 10 to 100 nM. Consider `CCC(CC)CNc1ncc2c(C3CCN(C(=O)c4cc(C)nc(C)c4)CC3)cn([C@H]3CC[C@H](O)CC3)c2n1` [compound 69, (2,6-dimethylpyridin-4-yl)(4-(2-((2-ethylbutyl)amino)-7-((1r,4r)-4-hydroxycyclohexyl)-7H-pyrrolo[2,3-d]pyrimidin-5-yl)piperidin-1-yl)methanone], for which the half-inhibitory concentration (IC50) in test [1] was below 10 nM; in test [2], 10 to 100 nM.

Consider `CCC[C@H](C)Nc1ncc2c(C3CCN(C(=O)c4ccc(OC)cc4)CC3)cn([C@H]3CC[C@H](O)CC3)c2n1` [compound 31, (4-(7-((1R,4S)-4-hydroxycyclohexyl)-2-(((S)-pentan-2-yl)amino)-7H-pyrrolo[2,3-d]pyrimidin-5-yl)piperidin-1-yl)(4-methoxyphenyl)methanone], for which the values for the IC50 in test [1] and in test [2] were below 10 nM and 100 to 1000 nM, respectively. The matching figures for `C[C@H](Nc1ncc2c(C3CCN(CC4CCCCC4)CC3)cn([C@H]3CC[C@H](O)CC3)c2n1)c1ccccc1` [compound 92, (1S,4R)-4-(5-(1-(cyclohexylmethyl)piperidin-4-yl)-2-(((S)-1-phenylethyl)amino)-7H-pyrrolo[2,3-d]pyrimidin-7-yl)cyclohexan-1-ol]: below 10 nM and 100 to 1000 nM. The corresponding values for `CCC[C@H](C)Nc1ncc2c(C3CCN(C(=O)c4ccc(N)cc4)CC3)cn([C@H]3CC[C@H](O)CC3)c2n1` [compound 82, (4-aminophenyl)(4-(7-((1R,4S)-4-hydroxycyclohexyl)-2-(((S)-pentan-2-yl)amino)-7H-pyrrolo[2,3-d]pyrimidin-5-yl)piperidin-1-yl)methanone] are below 10 nM and 100 to 1000 nM.

In test [2], `CCCCNc1ncc2c(C3CC4CCC(C3)N4)cn([C@H]3CC[C@H](O)CC3)c2n1` (stereo partly drawn) [compound 12, (1R,4R)-4-(5-((1R,3S,5S)-8-azabicyclo[3.2.1]octan-3-yl)-2-(butylamino)-7H-pyrrolo[2,3-d]pyrimidin-7-yl)cyclohexan-1-ol] had an IC50 of 1000 to 30000 nM. With `CCC[C@H](C)Nc1ncc2c(C3CCN(C(=O)c4cc(C)nc(C)c4)CC3)cn(C[C@H]3CC[C@H](N)CC3)c2n1` [compound 102, (4-(7-(((1R,4S)-4-aminocyclohexyl)methyl)-2-(((S)-pentan-2-yl)amino)-7H-pyrrolo[2,3-d]pyrimidin-5-yl)piperidin-1-yl)(2,6-dimethylpyridin-4-yl)methanone], the IC50 in test [1] is below 10 nM; in test [2] it was 100 to 1000 nM. The matching figures for `CCC[C@H](C)Nc1ncc2c(C3CCN(C(=O)c4cc(C)nc(C)c4)CC3)cn([C@H]3CC[C@H](N)CC3)c2n1` [compound 95, (4-(7-((1R,4S)-4-aminocyclohexyl)-2-(((S)-pentan-2-yl)amino)-7H-pyrrolo[2,3-d]pyrimidin-5-yl)piperidin-1-yl)(2,6-dimethylpyridin-4-yl)methanone]: below 10 nM and 10 to 100 nM. The corresponding values for `CCC[C@H](C)Nc1ncc2c(C3CCN(C(=O)C4CCNC4)CC3)cn([C@H]3CC[C@H](O)CC3)c2n1` (stereo partly drawn) [compound 17, (4-(7-((1R,4S)-4-hydroxycyclohexyl)-2-(((S)-pentan-2-yl)amino)-7H-pyrrolo[2,3-d]pyrimidin-5-yl)piperidin-1-yl)(pyrrolidin-3-yl)methanone] are below 10 nM and 10 to 100 nM. Turning to `CCC[C@H](C)Nc1ncc2c(C3CCN(S(=O)(=O)CCOC)CC3)cn([C@H]3CC[C@H](O)CC3)c2n1` [compound 4, (1S,4R)-4-(5-(1-((2-methoxyethyl)sulfonyl)piperidin-4-yl)-2-(((S)-pentan-2-yl)amino)-7H-pyrrolo[2,3-d]pyrimidin-7-yl)cyclohexan-1-ol], the half-inhibitory concentration (IC50) in test [1] is below 10 nM; in test [2], 100 to 1000 nM. Consider `Cc1cc(C(=O)N2CCC(c3cn([C@H]4CC[C@H](O)CC4)c4nc(N[C@@H](C)c5ccc(F)cc5)ncc34)CC2)cc(C)n1` [compound 75, (2,6-dimethylpyridin-4-yl)(4-(2-(((S)-1-(4-fluorophenyl)ethyl)amino)-7-((1R,4S)-4-hydroxycyclohexyl)-7H-pyrrolo[2,3-d]pyrimidin-5-yl)piperidin-1-yl)methanone], for which the IC50 in test [1] was below 10 nM; in test [2], 10 to 100 nM. The matching figures for `CCC[C@H](C)Nc1ncc2c(C3CCN(C(=O)c4cc[nH]c4)CC3)cn([C@H]3CC[C@H](O)CC3)c2n1` [compound 61, (4-(7-((1R,4S)-4-hydroxycyclohexyl)-2-(((S)-pentan-2-yl)amino)-7H-pyrrolo[2,3-d]pyrimidin-5-yl)piperidin-1-yl)(1H-pyrrol-3-yl)methanone]: below 10 nM and 100 to 1000 nM.
